Results reported in the NIST ThermoML archive (doi:10.1016/j.jct.2005.03.016).

Details: Liquid, Vibrating tube method

CCO [ethanol]
mass density [kg/m3]
Details	100 kPa	5000 kPa	10000 kPa	15000 kPa	20000 kPa	25000 kPa	30000 kPa	35000 kPa	40000 kPa	45000 kPa
283.15 K	798	802	805.9	809.5	813	816.4	819.7	822.8	825.9	828.8
293.15 K	789.5	793.7	797.8	801.6	805.3	808.9	812.3	815.6	818.7	821.8
303.15 K	780.9	785.3	789.6	793.7	797.5	801.3	804.8	808.2	811.5	814.7
313.15 K	772.1	776.8	781.3	785.6	789.6	793.5	797.2	800.8	804.2	807.6
323.15 K	763.3	768.3	773	777.6	781.8	785.9	789.7	793.5	797.1	800.5
333.15 K	754	759.3	764.3	769.1	773.6	777.8	781.9	785.8	789.5	793.1
343.15 K	744.5	750.1	755.5	760.5	765.3	769.8	774	778.1	782	785.7
353.15 K	–	740.6	746.4	751.7	756.7	761.5	766	770.2	774.3	778.2
